Results from patent publication US20070197452A1, “Treatment of amyloid-related diseases” (priority 2006, published 2007).

Assays:
[1] = target: T1, Aβ42 (Homo sapiens, UniProt P05067); test: Plasma Aβ42 level; assay type: in vivo, mouse; details: TgCRND8 mice; 28 days of therapy at five months of age; untreated 1144±76 pg/ml
T1 construct: analyzed for Aβ40 and Aβ42 using commercially available kits; from tissue; host or cells: hemi-brain homogenates and plasma of TgCRND8 transgenic mice
Description: Plasma and Cerebral Aβ Content. Hemi-brain samples were homogenized in a buffered sucrose solution, followed by either 0.4% diethylamine/100 mM NaCl for soluble Aβ levels or cold formic acid for the isolation of total Aβ. After neutralization, the samples were diluted and analyzed for Aβ40 and Aβ42 using commercially available kits (BIOSOURCE International). Each hemisphere was analyzed in triplicate and the mean values±SEM reported. Western blot analyses were performed on all fractions using urea gels for Aβ species analyses. Aβ was detected using 6E10 (BIOSOURCE International) and Enhanced Chemiluminenscence (Amersham).
Plasma and cerebral Aβ content. Hemi-brain samples were homogenized in a buffered sucrose solution, followed by either a mixture of 0.4% diethylamine and 100 mM NaCl for soluble Aβ levels or cold formic acid for the isolation of total Aβ. After neutralization, samples were diluted and analyzed for Aβ40 and Aβ42 using commercially available kits (Biosource International). Each hemisphere was analyzed in triplicate and the mean±s.e.m. was reported. Western blot analyses were carried out on all fractions using urea gels for Aβ species analyses. Aβ was detected using 6E10 (Biosource International).

[2] = wild-type mice
Description: Mice. […] A cohort of animals (n=10 mice per treatment arm) entered the study at five months of age, and outcomes were then analyzed after one month of treatment. The body weight, coat characteristics and in cage behaviour were monitored. Mannitol was used as a negative control for potential alterations in caloric intake. All experiments were performed according to the Canadian Council on Animal Care guidelines.
Mice. […] Mannitol was used as a negative control for potential alterations in caloric intake.

[3] = test system: APP; test: Analysis of APP in brain (western blot); assay type: in vivo, mouse; details: treated TgCRND8 mice
Description: Analysis of APP in brain. Mouse hemi-brain samples were homogenized and spun at 109,000×g, in 20 mM Tris pH7.4,0.25M sucrose, 1 mM EDTA and 1 mM EGTA, and a protease inhibitor cocktail, mixed with 0.4% DEA (diethylamine)/100 mM NaCl. The supernatants were analysed for APPs levels by Western blotting using mAb 22C11, while the pellets were analysed for APP holoprotein with mAb C1/6.1 as previously described.
Analysis of APP processing. Mouse hemi-brain samples were homogenized and spun at 109,000 g, in 20 mM Tris pH 7.4, 0.25 M sucrose, 1 mM EDTA and 1 mM EGTA, and a protease inhibitor cocktail, mixed with a mixture of 0.4% DEA (diethylamine) and 100 mMNaCl. The supernatants were analyzed for APP levels by western blotting using the monoclonal antibody 22C11, and the pellets were analyzed for APP holoprotein with the monoclonal antibody C1/6.1 as previously described. […] The target protein was probed with polyclonal APP C-terminal fragment-specific antibody (Sigma) by western blotting.

[4] = test system: transgenic TauP301L mouse model of frontotemporal dementia; test: Astrogliosis in transgenic TauP301L mice; assay type: in vivo; details: transgenic Tau (P301L) mice
Description: Gliosis Quantitation. Five randomly selected, evenly spaced, sagittal sections were collected from paraformaldehyde-fixed and frozen hemispheres of treated and control mice. Sections were immunolabelled for astrocytes with anti-rat GFAβ IgG2a (Dako; diluted 1:50) and for microglia with anti-rat CD68 IgG2b (Dako; 1:50). Digital images were captured using a Coolsnap digital camera (Photometrics, Tuscon, Ariz.) mounted to a Zeiss, Axioscope 2 Plus microscope. Images were analysed using Openlab 3.08 imaging software (Improvision, Lexington Mass.). Quantification of gliosis. Five randomly selected, evenly spaced sagittal sections from paraformaldehyde-fixed and frozen hemispheres of treated and control mice were collected. Sections were immunolabeled for astrocytes with an antibody against rat GFAβ IgG2a (Dako; diluted 1:50) and for microglia with an antibody to rat CD68 IgG2b (Dako; 1:50). Digital images were captured using a Coolsnap digital camera (Photometrics) mounted to a Zeiss, Axioscope 2 Plus microscope. Images were analyzed using Openlab 3.08 imaging software (Improvision).

T1 sequence (P05067 672-713 limits assumed): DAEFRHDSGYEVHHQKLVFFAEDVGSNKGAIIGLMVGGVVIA

**Q.** With `OC1C(O)C(O)C(O)C(O)C1O` (stereo not drawn) [epi-cyclohexanehexol, 1,2,3,4,5/6-(epi-) cyclohexanehexol, reference compound] as the molecule, how does the “Plasma Aβ42 levels” value [1] read?
**A.** Its value is 1079 ± 79 pg/mL.

**Q.** Which “survival, weight, fur condition, cage behavior” value [2] does the source give for `OC1C(O)C(O)C(O)C(O)C1O` (centres unmarked) [scyllo-cyclohexanehexol, 1,3,5/2,4,6-(scyllo-) cyclohexanehexol] here?
**A.** The value was “no effect on survival, weight, fur condition or cage behavior”.

**Q.** What about the “levels of APP holoprotein, APP glycosylation, APPs-α, APPs-β in brain homogenates” value [3] of the same molecule?
**A.** Its value is “no effect”.

**Q.** And the astrogliosis [4]?
**A.** Its astrogliosis is “did not prevent the astrogliosis”.

**Q.** What about the astrogliosis ([4]; listed as Scyllo-cyclohexanehexol) of the same molecule?
**A.** The astrogliosis was “no effect”.
